Assay results taken from article PMC11912270, “Synthesis and SAR Studies of Acyl-Thiourea Platinum(II) Complexes Yield Analogs with Dual-Stage Antiplasmodium Activity” (ACS Medicinal Chemistry Letters, 2025).
Read-outs that look alike come from different tables or passages of the source.

Experiments:
PfNF54 ABS parasites = assay: SYBR Green I-based proliferative assay, PfNF54 ABS parasites; type: cell-based, Plasmodium falciparum; settings: ABS, SYBR Green I, 96 h; mean ± S.E., N = 3 (no S.E.: N = 1)
Method: (§1) The parasites were incubated under drug […]
(§2) incubation, parasite survival was determined by adding equal volumes of parasite suspension (100 µL) and SYBR Green I lysis buffer (0.2% µL/mL of 10 000x SYBR Green I, 20 mM Tris-HCl, pH 7.5, 5 mM EDTA, 0.008% saponin (w/v) and 0.08% Triton x-100). This was incubated for 1 hour at room temperature in the dark. […]

PfK1 ABS parasites = type: cell-based, Plasmodium falciparum; settings: for IC50: ABS, SYBR Green I, 96 h, mean ± S.E.; for RI (resistance index): RI = PfK1 IC50/PfNF54 IC50
Method: as §1, §2

[1] = test system: early-stage gametocytes (NF54-PfS16-GFP-Luc); assay: Luciferase reporter assay, early-stage gametocytes; type: cell-based, Plasmodium falciparum; settings: for EG (% inhibition) 1 µM / EG (% inhibition) 5 µM: single biological repeat; for IC50: early (II/III) gametocytes, luciferase, 48 h, read-out: EG IC50
Method: (§3) All the complexes were tested for their early- and late-stage gametocyte activity in a dual-point assay (1 μM and 5 μM). […]
(§4) 1.5.In vitro activity against gametocyte stages
(§5) PfNF54 gametocytes were prepared and isolated according to the method reported by Reader […]
(§6) The in vitro gametocyte activity of the synthesized complexes was determined using a luciferase reporter line-based assay.
(§7) NF54-PfS16-GFP-Luc parasites were used for the stage-specific assessment of gametocytocidal activity. Early-stage gametocyte (stage I-III) experiments were performed on day 5 (representing >90% of early-stage and late-stage gametocyte (stages IV/V) experiments were performed on day 10. In each experiment, assays were set up with the use of 2-3% […]
(§8) Luciferase activity was determined in 30 µL parasite lysates by adding luciferin substrate (30 µL) (Promega Luciferase Assay System) at room temperature. […]

[2] = test system: late-stage gametocytes (NF54-PfS16-GFP-Luc); assay: Luciferase reporter assay, late-stage gametocytes; type: cell-based, Plasmodium falciparum; settings: for LG (% inhibition) 1 µM / LG (% inhibition) 5 µM: single biological repeat
Method: as §3, §4, §5, §6, §7, §8

[3] = test system: Chinese hamster ovary (CHO) cell line; assay: MTT cytotoxicity assay; type: cell-based; settings: 48 h, read-out: CHO IC50
Method: 1.6.In vitro cytotoxicity assay
A 3-(4,5-dimethylthiazol-2-yl)-2,5-diphenyltetrazoliumbromide (MTT) assay was used to screen the metal complexes against the mammalian Chinese hamster ovarian (CHO) cell line.
A stock solution of each compound (2 mg/mL) in DMSO was prepared and kept at -20 °C until needed. Emetine was used as a reference drug. A starting concentration of 100 µg/mL was used, and serially diluted ten-fold using a complete medium to give the lowest concentration of 0.001 µg/mL (6 dilutions). The plates containing the CHO cells under drug pressure were […]
Plates containing the drug and cell suspension were developed by adding 25 μL of sterile MTT (Thermo Fisher Scientific) (25 µL) to each well, followed by 4 h […]
of incubation at room temperature in the dark. The plates were then centrifuged, and the supernatant was removed via aspiration. Sample absorbance was read at a wavelength of 540 […]
analysis via GraphPad Prism v.4.0 software. The IC50 values were determined for each compound were determined from the dose-response curves. […]

[4] = Kinetic solubility by HPLC (pH 6.5); settings: for Aqueous solubility pH 6.5: kinetic, HPLC
Method: 1.7. Kinetic solubility by HPLC (pH 6.5)
Solubility was measured at pH 6.5 using an adapted miniaturized shake-flask method, in 96-well plate format.4,5 Briefly, 4 µL of a 10 mM stock in DMSO was added to a 96-well plate and evaporated using a GeneVac system. Phosphate buffer pH 6.5 was then added to the wells […]
At the end of this incubation, the […]
in the analysis plate. Analysis was then performed by HPLC-DAD and the solubility of each sample was determined from the corresponding calibration curve. […]

[5] = Single-point microsomal metabolic stability, mouse; type: in vitro ADME; settings: for Microsomal metabolic stability (% remaining after 30 min) Mouse: mouse liver microsomes, 1 µM
Method: (§9) 1.8. Microsomal metabolic stability studies […]
(§10) rat IGS, Xenotech), and mouse (male mouse CD1, Xenotech) liver microsomes (0.4 mg/ml) for 30 min at 37 °C. Reactions were quenched by adding ice-cold acetonitrile containing […]
(§11) disappearance of the parent compound. Half-life, clearance, and hepatic excretion ratios were determined using standard equations.6,7 Propranolol. […]

[6] = Single-point microsomal metabolic stability, human; type: in vitro ADME; settings: human liver microsomes; for Microsomal metabolic stability (% remaining after 30 min) Human: 1 µM
Method: as §9, §10, §11

Cyclic voltammetry = type: physicochemical; settings: for Epa1: anodic peak potential; for Epa1 / Epc1: 0.1 V/s; for Epc1: cathodic peak potential; for Epc2: second nonreversible reduction
Source text: It is known that Fe^2+/Fe^3+ redox chemistry has an important role in the bioactivity of ferrocene derivatives.[33] The production of reactive oxygen species (ROS) is one of the modes of action of ferroquine and other ferrocene derivatives[34] and is linked to the correlation between their bioactivity and electrochemical behavior. We determined whether a similar correlation could be made for the mixed-ligand platinum(II) complexes reported herein given that metal centers have the potential to be oxidized and reduced. The electrochemistry of the complexes was studied using cyclic voltammetry (CV), which uses a triangular potential waveform. The CV experiments were performed in either dry MeOH or DMF containing tetrabutylammonium chloride (TBACl) as the supporting electrolyte. The working electrode was glassy carbon with a platinum wire as the counter electrode and Ag/AgCl as the reference. The anodic (Epa) and cathodic (Epc) peak potentials at 0.1 V/s and half-wave potentials (E1/2) were measured (Table 3). All of the tested complexes undergo reversible one-electron Pt^2+/Pt^+ reductions (Figures S38–S46). Complexes C2, C4, and C8 undergo a second nonreversible reduction (Epc2), which is most likely ligand-based and linked to reductions of the substituent on the bpy. Looking at SAR2, the more electron-withdrawing the substituent, the […] the E1/2 (V vs Fe/Fe^+) value was. This trend was expected, as a more electron-withdrawing substituent reduces the electron density around the metal center, making it easier for the metal to be reduced from Pt^2+ to Pt^+. […] This is also the case for other bpy-containing platinum(II) complexes that only undergo reductions.[35],[36] […]
For the cyclic voltammetry experiments a solution of the test compound (1 x 10-3) in DMSO (3 mL) is added to the electrolyte solution (0.1 M tetrabutylammonium chloride (TBACl) in DMSO). The electrochemical measurements were obtained using a Basi Epsilon Eclipse Electrochemical Analyzer Potentiostat and the CV graphs were generated using Excel. The working electrode was glassy carbon (GC) with platinum wire as the counter electrode (CE) and Ag/AgCl as the reference. […]

ABS parasites = assay: Dual point activity against ABS parasites; type: cell-based, Plasmodium falciparum; settings: single biological repeat
Source text: Table S2: Dual point activity of platinum(II) complexes against ABS parasites, early- and late-
stage gametocytes. Values are averaged from technical triplicates performed for a single

PfNF54 = assay: 72 h pLDH assay, PfNF54 (precursor compounds); type: cell-based, Plasmodium falciparum; settings: for inhibition of Pf proliferation: maximum concentration of 5 μM, PfNF54; for IC50: read-out: PfNF54 IC50
Method: Lastly, the pharmacological effect of substitution with a methyl group at different positions on the bpy ring was determined (SAR4). Changing from the 4,4′-positions (C2) to the 5,5′-positions (C14) improved the PfNF54 activity by 5-fold, whereas changing to the 6,6′-positions (C15) decreased the activity by 2-fold.

Pf3D7 strain = settings: cited from earlier work
PfK1 = settings: cited from earlier work
[7] = late (IV/V) gametocytes, luciferase, 48 h, read-out: LG IC50
[8] = half-wave potential corrected to ferrocene

Molecule | IC50 (PfNF54 ABS parasites) [µM] | IC50 (PfK1 ABS parasites) [µM] | EG (% inhibition) 1 µM [1] [% inhibition] | EG (% inhibition) 5 µM [1] [% inhibition] | IC50 [1] [µM] | LG (% inhibition) 1 µM [2] [% inhibition] | LG (% inhibition) 5 µM [2] [% inhibition] | IC50 [2, 7] [µM] | IC50 ([3]; cytotoxicity, MTT, N, n = 1, 3) [µM] | Aqueous solubility pH 6.5 [4] [μM] | Microsomal metabolic stability (% remaining after 30 min) Mouse [5] [% remaining] | Microsomal metabolic stability (% remaining after 30 min) Human [6] [% remaining] | Epa1 (Cyclic voltammetry) | Epc1 (Cyclic voltammetry) | E1/2 (Cyclic voltammetry; [8]) | Epc2 (Cyclic voltammetry) | ABS (% inhibition) 1 µM (ABS parasites) [% inhibition] | ABS (% inhibition) 5 µM (ABS parasites) [% inhibition] | further results
Cc1cc[n+]2c(c1)-c1cc(C)cc[n+]1[Pt-2]21[O+]=C(c2ccccc2)N=C(N(CCO)CCO)[S]1.[Cl-] [C2] | 1.42 ± 0.276 | 0.541 ± 0.044 | 19.9 | 7.9 | > 20 | 11.3 | 25.5 | > 20 | > 50 | 170 | 72 | 70 | –1.074 V | –1.016 V | –1.585 V vs Fe/Fe^+ | –1.084 V vs Ag/Ag^+ | 70.9 | 104.0 | RI (resistance index) (PfK1 ABS parasites): 0.4; E1/2 (Cyclic voltammetry; half-wave potential): –1.045 V vs Ag/Ag^+
OCCN(CCO)C1=NC(c2ccccc2)=[O+][Pt-2]2([S]1)[n+]1ccccc1-c1cccc[n+]12.[Cl-] [C3] | 0.142 ± 0.012 | 0.184 ± 0.022 | 26.9 | 0.0 | > 20 | 14.8 | 39.8 | > 20 | > 50 | – | 75 | 72 | –1.210 V | –1.014 V | – | – | 68.7 | 103.1 | –
COc1cc[n+]2c(c1)-c1cc(OC)cc[n+]1[Pt-2]21[O+]=C(c2ccccc2)N=C(N(CCO)CCO)[S]1.[Cl-] [C4] | 0.266 ± 0.029 | 0.164 ± 0.007 | 6.8 | 9.1 | > 20 | 14.8 | 54.4 | > 20 | > 50 | 195 | 88 | 63 | –1.136 V | –1.064 V | –1.640 V vs Fe/Fe^+ | –1.515 V vs Ag/Ag^+ | 67.1 | 99.8 | RI (resistance index) (PfK1 ABS parasites): 0.6; E1/2 (Cyclic voltammetry; half-wave potential): –1.100 V vs Ag/Ag^+
OCCN(CCO)C1=NC(c2ccccc2)=[O+][Pt-2]2([S]1)[n+]1ccc(C(F)(F)F)cc1-c1cc(C(F)(F)F)cc[n+]12.[Cl-] [C8] | > 5 | – | 26.2 | 50.0 | > 20 | 80.6 | 85.8 | 0.38 | > 50 | – | 46 | 47 | –0.710 V | –0.607 V | –1.076 V vs Fe/Fe^+ | –1.272 V vs Ag/Ag^+ | 10.6 | 29.9 | IC50 ([2]; gametocyte stage not specified, read-out: gametocidal activity IC50): < 5 µM
COC(=O)c1cc[n+]2c(c1)-c1cc(C(=O)OC)cc[n+]1[Pt-2]21[O+]=C(c2ccccc2)N=C(N(CCO)CCO)[S]1.[Cl-] [C10] | > 5 | – | 3.7 | 4.2 | > 20 | 0.6 | 6.1 | > 20 | > 50 | <5 | – | – | – | – | – | – | 7.11 | 17.3 | –
[Cl][Pt-2]([Cl])([Cl])[Cl].[K+].[K+] [K2PtCl4, potassium tetrachloroplatinate] | – | – | – | – | – | – | – | – | > 50 | – | – | – | – | – | – | – | – | – | inhibition of Pf proliferation (PfNF54): did not inhibit Pf proliferation; IC50 (PfNF54; precursor compounds, 72 h pLDH assay): > 5 µM
CS(=O)(=O)c1ccc(-c2cnc(N)c(-c3ccc(C(F)(F)F)nc3)c2)cc1 [MMV390048, reference compound] | – | – | – | – | – | – | – | – | – | – | – | – | – | – | – | – | – | – | solubility at 24 h ([4]; phosphate buffer, 25 °C, pH 6.5, aqueous buffer, thermodynamic from solid): < 5 µM; remaining at 0.5 h, 1 µM ([5]; male, CD1, mouse liver microsomes, 30 min, read-out: Microsomal metabolic stability (% remaining after 30 min) Mouse): > 95%; remaining at 0.5 h, 1 µM ([6]; both sexes, 30 min, read-out: Microsomal metabolic stability (% remaining after 30 min) Human): > 95%
O=C(NC(=S)N(CCO)CCO)c1ccccc1 [compound 2] | – | – | – | – | – | – | – | – | – | – | – | – | – | – | – | – | – | – | IC50 (PfNF54; Plasmodium falciparum, 72 h): > 5 µM; inhibition of Pf proliferation (PfNF54): did not inhibit Pf proliferation; IC50 ([3]; Cricetulus griseus, CHO): > 50 µM
ferroquine [FQ] | – | – | – | – | – | – | – | – | – | – | – | – | – | – | – | – | – | – | fold increase in activity compared to CQ (Pf3D7 strain): 1.7 fold; fold increase in activity compared to CQ (PfK1): 25 fold
